# Reference: patent US10065941B2, “Aminotriazine derivative and pharmaceutical composition comprising the same” (Shionogi & Co., Ltd., priority 2013, dated 2018)
# Target: human P2X3 receptor (Homo sapiens (Human), UniProt P56373)
# Experiment: Evaluation of human P2X3 receptor inhibitory activity (Test Example 1)
# Type: cell-based
# Conditions: C6BU-1 cell transfected with human P2X3 receptor gene, FLIPR 384
# Procedure, shortened: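 FLIPR calcium read-out: signal taken as peak fluorescence after ATP addition divided by starting fluorescence, and IC50 calculated from it. Compound added 5 min before 150 nM ATP solution (pre-dispense stock) to Fluo-3-AM-loaded C6BU-1 cells stably transfected with human P2X3; HEPES buffer pH 7.5 with probenecid.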
# human P2X3 receptor, sequence (P56373 whole entry): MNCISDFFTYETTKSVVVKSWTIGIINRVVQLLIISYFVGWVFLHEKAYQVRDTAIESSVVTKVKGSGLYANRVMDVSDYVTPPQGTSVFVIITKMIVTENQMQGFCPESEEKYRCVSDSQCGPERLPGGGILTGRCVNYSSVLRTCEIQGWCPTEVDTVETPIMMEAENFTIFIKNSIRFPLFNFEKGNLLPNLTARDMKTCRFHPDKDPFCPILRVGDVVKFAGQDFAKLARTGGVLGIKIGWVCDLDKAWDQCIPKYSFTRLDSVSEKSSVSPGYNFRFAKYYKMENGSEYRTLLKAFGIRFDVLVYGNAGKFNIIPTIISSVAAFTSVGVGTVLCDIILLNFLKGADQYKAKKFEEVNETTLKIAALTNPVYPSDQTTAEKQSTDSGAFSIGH
row,Compound,IC50 [nM]
1,COC(=O)[C@H](C)[C@H](C)n1c(=O)[nH]/c(=N\c2ccc(Oc3ccccn3)c(C)c2)n(Cc2ccc(Cl)cc2)c1=O [Compound I-226],38
2,COC(=O)C(C)(C)Cn1c(=O)[nH]/c(=N\c2ccc(Oc3ccccn3)c(F)c2)n(Cc2ccc(Cl)cc2)c1=O [Compound I-227],31
3,COC(=O)[C@H](C)[C@H](C)n1c(=O)[nH]/c(=N\c2ccc(Oc3ccccn3)c(F)c2)n(Cc2ccc(Cl)cc2)c1=O [Compound I-228],21
4,COc1ccc(Oc2ccc(/N=c3\[nH]c(=O)n(C[C@H](C)C(=O)O)c(=O)n3Cc3ccc(C)cc3)cc2)nc1 [Compound I-229],6
5,CC(C)(Cn1c(=O)[nH]/c(=N\c2ccc(Oc3ccccn3)c(F)c2)n(Cc2ccc(Cl)cc2)c1=O)C(=O)O [Compound I-230],11
6,C[C@@H](C(=O)O)[C@H](C)n1c(=O)[nH]/c(=N\c2ccc(Oc3ccccn3)c(F)c2)n(Cc2ccc(Cl)cc2)c1=O [Compound I-231],7
7,C[C@@H](Cn1c(=O)[nH]/c(=N\c2ccc(Oc3ccc(CF)cn3)cc2)n(Cc2ccc(Cl)cc2)c1=O)C(=O)O [Compound I-232],5
8,C[C@@H](Cn1c(=O)[nH]/c(=N\c2ccc(Oc3ccc(CF)nc3)cc2)n(Cc2ccc(Cl)cc2)c1=O)C(=O)O [Compound I-233],6
9,C[C@@H](Cn1c(=O)[nH]/c(=N\c2ccc(Oc3cccc(F)n3)cc2)n(CC2CCC3(CC2)CC3)c1=O)C(=O)O [Compound I-234],7
10,C[C@@H](Cn1c(=O)[nH]/c(=N\c2ccc(Oc3ccc(F)cn3)cc2)n(CC2CCC3(CC2)CC3)c1=O)C(=O)O [Compound I-235],9
11,COC(=O)[C@@H](C)Cn1c(=O)[nH]/c(=N\c2ccc(Oc3cccc(F)n3)cc2)n(CC2CCC3(CC2)CC3)c1=O [Compound I-236],16
12,COC(=O)[C@@H](C)Cn1c(=O)[nH]/c(=N\c2ccc(Oc3ccc(F)cn3)cc2)n(CC2CCC3(CC2)CC3)c1=O [Compound I-237],14
13,COC(=O)[C@@H](C)Cn1c(=O)[nH]/c(=N\c2ccc(Oc3ccc(CF)cn3)cc2)n(Cc2ccc(Cl)cc2)c1=O [Compound I-238],5
14,COC(=O)[C@@H](C)Cn1c(=O)[nH]/c(=N\c2ccc(Oc3ccc(CF)nc3)cc2)n(Cc2ccc(Cl)cc2)c1=O [Compound I-239],6
15,C[C@@H](Cn1c(=O)[nH]/c(=N\c2ccc(Oc3cc(CO)ccn3)cc2)n(Cc2ccc(Cl)cc2)c1=O)C(=O)O [Compound I-240],22
16,COCc1ccc(Oc2ccc(/N=c3\[nH]c(=O)n(C[C@H](C)C(=O)O)c(=O)n3Cc3ccc(Cl)cc3)cc2)nc1 [Compound I-241],8
17,Cc1ccc(Cn2c(=O)n(C[C@H](C)C(=O)O)c(=O)[nH]/c2=N\c2ccc(Oc3ccc(CF)cn3)cc2)cc1 [Compound I-242],8
18,C[C@@H](Cn1c(=O)[nH]/c(=N\c2ccc(Oc3ccccn3)c(Cl)c2)n(Cc2ccc(Cl)cc2)c1=O)C(=O)O [Compound I-243],7
19,C[C@@H](Cn1c(=O)[nH]/c(=N\c2ccc(Oc3ccccn3)c(F)c2)n(C[C@H]2CC[C@H](C)CC2)c1=O)C(=O)O [Compound I-244],8
20,COC(=O)[C@@H](C)Cn1c(=O)[nH]/c(=N\c2ccc(Oc3cccc(CO)n3)cc2)n(Cc2ccc(Cl)cc2)c1=O [Compound I-245],14
21,COC(=O)[C@@H](C)Cn1c(=O)[nH]/c(=N\c2ccc(Oc3cccc(CO)n3)cc2)n(Cc2ccc(C)cc2)c1=O [Compound I-246],14
22,COCc1ccc(Oc2ccc(/N=c3\[nH]c(=O)n(C[C@H](C)C(=O)OC)c(=O)n3Cc3ccc(Cl)cc3)cc2)nc1 [Compound I-247],6

row,Compound,IC50 [nM]
1,COCc1cccc(Oc2ccc(/N=c3\[nH]c(=O)n(C[C@H](C)C(=O)OC)c(=O)n3Cc3ccc(Cl)cc3)cc2)n1 [Compound I-249],36
2,COCc1cccc(Oc2ccc(/N=c3\[nH]c(=O)n(C[C@H](C)C(=O)OC)c(=O)n3Cc3ccc(C)cc3)cc2)n1 [Compound I-250],31
3,CCc1ccc(Oc2ccc(/N=c3\[nH]c(=O)n(C[C@H](C)C(=O)OC)c(=O)n3Cc3ccc(Cl)cc3)cc2)nc1 [Compound I-251],8
4,COC(=O)[C@@H](C)Cn1c(=O)[nH]/c(=N\c2ccc(Oc3ccccn3)c(Cl)c2)n(Cc2ccc(Cl)cc2)c1=O [Compound I-252],14
5,COCc1ccc(Oc2ccc(/N=c3\[nH]c(=O)n(C[C@H](C)C(=O)O)c(=O)n3Cc3ccc(C)cc3)cc2)nc1 [Compound I-254],6
6,COCc1cccc(Oc2ccc(/N=c3\[nH]c(=O)n(C[C@H](C)C(=O)O)c(=O)n3Cc3ccc(Cl)cc3)cc2)n1 [Compound I-255],18
7,COCc1cccc(Oc2ccc(/N=c3\[nH]c(=O)n(C[C@H](C)C(=O)O)c(=O)n3Cc3ccc(C)cc3)cc2)n1 [Compound I-256],29
8,C[C@@H](Cn1c(=O)[nH]/c(=N\c2ccc(Oc3cccc(CO)n3)cc2)n(Cc2ccc(Cl)cc2)c1=O)C(=O)O [Compound I-257],16
9,CCc1ccc(Oc2ccc(/N=c3\[nH]c(=O)n(C[C@H](C)C(=O)O)c(=O)n3Cc3ccc(Cl)cc3)cc2)nc1 [Compound I-258],4
10,CC(=O)c1ccc(Oc2ccc(/N=c3\[nH]c(=O)n(C[C@H](C)C(=O)O)c(=O)n3Cc3ccc(Cl)cc3)cc2)nc1 [Compound I-259],5
11,CC(=O)c1ccc(Oc2ccc(/N=c3\[nH]c(=O)n(C[C@H](C)C(=O)O)c(=O)n3Cc3ccc(C)cc3)cc2)nc1 [Compound I-260],5
12,Cc1ccc(Cn2c(=O)n(C[C@H](C)C(=O)O)c(=O)[nH]/c2=N\c2ccc(Oc3cccc(CF)n3)cc2)cc1 [Compound I-261],8
13,Cc1ccc(Cn2c(=O)n(C[C@H](C)C(=O)O)c(=O)[nH]/c2=N\c2ccc(Oc3ccc(C(C)O)cn3)cc2)cc1 (some centres unmarked) [Compound I-262],7
14,C[C@@H](Cn1c(=O)[nH]/c(=N\c2ccc(Oc3ccccn3)cc2)n(CC2CC3(CCC3)C2)c1=O)C(=O)O [Compound I-263],5
15,C[C@@H](Cn1c(=O)[nH]/c(=N\c2ccc(Oc3ccc(F)cn3)cc2)n(CC2CC3(CCC3)C2)c1=O)C(=O)O [Compound I-264],5
16,COC(=O)[C@@H](C)Cn1c(=O)[nH]/c(=N\c2ccc(Oc3cccc(CI)n3)cc2)n(Cc2ccc(C)cc2)c1=O [Compound I-265],10
17,COC(=O)[C@@H](C)Cn1c(=O)[nH]/c(=N\c2ccc(Oc3cccc(CF)n3)cc2)n(Cc2ccc(C)cc2)c1=O [Compound I-266],8
18,COC(=O)[C@@H](C)Cn1c(=O)[nH]/c(=N\c2ccc(Oc3ccc(C(C)=O)cn3)cc2)n(Cc2ccc(C)cc2)c1=O [Compound I-267],3
19,COC(=O)[C@@H](C)Cn1c(=O)[nH]/c(=N\c2ccc(Oc3ccccn3)cc2)n(CC2CC3(CCC3)C2)c1=O [Compound I-268],3
20,COC(=O)[C@@H](C)Cn1c(=O)[nH]/c(=N\c2ccc(Oc3ccc(F)cn3)cc2)n(CC2CC3(CCC3)C2)c1=O [Compound I-269],4
21,CCc1ccc(Oc2ccc(/N=c3\[nH]c(=O)n(C[C@H](C)C(=O)OC)c(=O)n3Cc3ccc(C)cc3)cc2)nc1 [Compound I-270],4
22,COC(=O)[C@@H](C)Cn1c(=O)[nH]/c(=N\c2ccc(Oc3ccccn3)cc2)n(Cc2ccc(Cl)s2)c1=O [Compound I-271],10
